Assay results taken from ChEMBL document CHEMBL1909046, “DrugMatrix in vitro pharmacology data”.

Legend:
[1] = DRUGMATRIX: Tumor Necrosis Factor (TNF), Non-Selective radioligand binding (ligand: [125I] TNF-alpha); format: cell membranes, Membrane; conditions: u-937; Not Active = under 50% inhibition at 10 µM
[2] = target: D(3) dopamine receptor (Homo sapiens, UniProt P35462); experiment: DRUGMATRIX: Dopamine D3 radioligand binding (ligand: [3H] Spiperone); format: cell membranes, CHO, Membrane
[3] = target: Prostaglandin G/H synthase 1 (Homo sapiens, UniProt P23219); experiment: biochemical; format: tissue-based, Platelet;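 note: inhibition of COX-1 enzyme activity, with arachidonic acid supplied as substrate; in other assays of this panel Not Active means under 50% inhibition at 10 µM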
Sequence of Prostaglandin G/H synthase 1 (P23219 whole entry): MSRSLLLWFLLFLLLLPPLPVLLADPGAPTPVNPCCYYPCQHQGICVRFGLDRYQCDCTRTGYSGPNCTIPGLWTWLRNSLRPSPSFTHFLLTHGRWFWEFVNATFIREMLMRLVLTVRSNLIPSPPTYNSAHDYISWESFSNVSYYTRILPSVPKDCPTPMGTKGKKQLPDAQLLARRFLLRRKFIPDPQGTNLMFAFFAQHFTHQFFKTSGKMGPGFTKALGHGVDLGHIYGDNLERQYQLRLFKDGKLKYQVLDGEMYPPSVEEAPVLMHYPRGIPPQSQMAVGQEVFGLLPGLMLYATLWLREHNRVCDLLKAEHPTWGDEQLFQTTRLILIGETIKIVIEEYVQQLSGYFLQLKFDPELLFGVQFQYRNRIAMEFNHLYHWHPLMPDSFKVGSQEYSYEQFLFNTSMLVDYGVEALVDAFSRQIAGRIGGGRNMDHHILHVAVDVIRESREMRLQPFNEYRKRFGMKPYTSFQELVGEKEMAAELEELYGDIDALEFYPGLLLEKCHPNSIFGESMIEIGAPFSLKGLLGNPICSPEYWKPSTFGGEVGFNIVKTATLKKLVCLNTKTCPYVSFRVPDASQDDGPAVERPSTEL

[4] = target: T1, Receptor-type tyrosine-protein phosphatase C (Homo sapiens, UniProt P08575); design: species or system Escherichia coli;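 note: inhibition of CD45 enzyme activity measured using DiFMUP as substrate; in other assays of this panel Not Active means under 50% inhibition at 10 µM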
T1 sequence (P08575 whole entry): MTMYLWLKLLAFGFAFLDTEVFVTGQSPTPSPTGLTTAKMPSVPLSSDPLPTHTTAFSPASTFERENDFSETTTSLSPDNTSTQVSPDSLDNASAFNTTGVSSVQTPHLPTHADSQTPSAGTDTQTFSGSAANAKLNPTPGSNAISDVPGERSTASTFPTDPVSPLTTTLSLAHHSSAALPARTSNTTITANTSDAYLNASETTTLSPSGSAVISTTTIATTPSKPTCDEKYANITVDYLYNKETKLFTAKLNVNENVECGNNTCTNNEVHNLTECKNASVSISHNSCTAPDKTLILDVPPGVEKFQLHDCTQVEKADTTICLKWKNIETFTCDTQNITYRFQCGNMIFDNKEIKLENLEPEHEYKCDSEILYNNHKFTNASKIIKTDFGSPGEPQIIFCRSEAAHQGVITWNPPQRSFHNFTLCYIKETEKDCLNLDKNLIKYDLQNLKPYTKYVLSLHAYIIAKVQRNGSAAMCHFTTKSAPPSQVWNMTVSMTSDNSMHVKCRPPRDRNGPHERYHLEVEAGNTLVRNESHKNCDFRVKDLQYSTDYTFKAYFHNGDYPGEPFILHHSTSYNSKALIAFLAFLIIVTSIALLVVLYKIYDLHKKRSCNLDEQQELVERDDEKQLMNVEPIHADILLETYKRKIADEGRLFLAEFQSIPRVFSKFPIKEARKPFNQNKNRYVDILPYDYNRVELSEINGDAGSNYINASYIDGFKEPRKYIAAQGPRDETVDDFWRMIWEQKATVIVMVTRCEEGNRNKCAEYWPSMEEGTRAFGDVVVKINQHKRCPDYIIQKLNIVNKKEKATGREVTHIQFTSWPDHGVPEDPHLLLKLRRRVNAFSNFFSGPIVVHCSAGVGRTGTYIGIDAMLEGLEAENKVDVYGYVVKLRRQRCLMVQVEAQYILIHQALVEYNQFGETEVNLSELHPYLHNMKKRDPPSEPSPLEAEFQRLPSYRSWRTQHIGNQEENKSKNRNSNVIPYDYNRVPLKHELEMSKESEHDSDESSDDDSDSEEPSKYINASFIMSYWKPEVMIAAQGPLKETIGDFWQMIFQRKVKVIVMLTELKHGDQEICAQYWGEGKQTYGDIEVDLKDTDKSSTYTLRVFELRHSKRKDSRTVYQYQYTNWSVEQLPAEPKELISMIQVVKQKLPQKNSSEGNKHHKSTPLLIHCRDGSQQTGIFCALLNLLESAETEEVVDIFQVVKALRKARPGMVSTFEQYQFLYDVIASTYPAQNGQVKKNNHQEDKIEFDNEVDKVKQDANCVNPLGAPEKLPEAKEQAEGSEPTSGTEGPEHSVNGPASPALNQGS

[5] = target: T2, 5-hydroxytryptamine receptor 2C (Homo sapiens, UniProt P28335); experiment: DRUGMATRIX: Serotonin (5-Hydroxytryptamine) 5-HT2C radioligand binding (ligand: [3H] Mesulergine); format: cell membranes, CHO-K1, Membrane; conditions: Not Active = under 50% inhibition at 10 µM
T2 sequence (P28335 whole entry): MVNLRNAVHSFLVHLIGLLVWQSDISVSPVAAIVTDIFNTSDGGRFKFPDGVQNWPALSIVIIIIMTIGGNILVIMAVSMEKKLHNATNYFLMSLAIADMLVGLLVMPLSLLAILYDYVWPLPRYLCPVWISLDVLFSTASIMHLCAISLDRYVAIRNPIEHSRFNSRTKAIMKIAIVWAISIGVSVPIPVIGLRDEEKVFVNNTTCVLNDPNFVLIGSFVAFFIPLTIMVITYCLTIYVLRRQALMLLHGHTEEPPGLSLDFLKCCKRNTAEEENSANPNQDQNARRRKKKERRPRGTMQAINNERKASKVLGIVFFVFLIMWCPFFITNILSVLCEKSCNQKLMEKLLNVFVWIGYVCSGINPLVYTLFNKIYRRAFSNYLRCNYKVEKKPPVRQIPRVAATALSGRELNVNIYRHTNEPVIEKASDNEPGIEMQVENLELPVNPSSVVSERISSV

Sequence of D(3) dopamine receptor (P35462 whole entry): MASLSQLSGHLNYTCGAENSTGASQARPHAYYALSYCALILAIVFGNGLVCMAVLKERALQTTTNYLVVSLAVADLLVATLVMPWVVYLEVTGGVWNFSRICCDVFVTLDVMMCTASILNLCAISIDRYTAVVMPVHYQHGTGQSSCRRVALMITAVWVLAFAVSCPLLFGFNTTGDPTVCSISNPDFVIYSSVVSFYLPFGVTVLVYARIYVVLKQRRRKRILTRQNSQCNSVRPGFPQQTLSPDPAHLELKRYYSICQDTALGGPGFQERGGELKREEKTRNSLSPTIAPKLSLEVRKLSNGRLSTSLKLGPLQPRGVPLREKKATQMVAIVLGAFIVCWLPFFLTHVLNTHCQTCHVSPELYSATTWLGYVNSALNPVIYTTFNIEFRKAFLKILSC

## Oc1ccccc1 [PHENOL]
[1]
  IC50: Not Active
  Ki: Not Active
[2]; cho
  IC50: Not Active
[3]; platelet
  IC50: Not Active
[4]
  IC50: Not Active
[5]; cho-k1
  IC50: Not Active

## COc1ccc(Cl)cc1C(=O)NCCc1ccc(S(=O)(=O)NC(=O)NC2CCCCC2)cc1 [GLYBURIDE]
[1]
  IC50: Not Active
  Ki: Not Active
[2]; cho
  IC50: Not Active
[3]; platelet
  IC50: Not Active
[4]
  IC50: Not Active
[5]; cho-k1
  IC50: Not Active

## OC[C@H]1O[C@@H]2O[C@H]3[C@H](O)[C@@H](O)[C@@H](O[C@H]4[C@H](O)[C@@H](O)[C@@H](O[C@H]5[C@H](O)[C@@H](O)[C@@H](O[C@H]6[C@H](O)[C@@H](O)[C@@H](O[C@H]7[C@H](O)[C@@H](O)[C@@H](O[C@H]8[C@H](O)[C@@H](O)[C@@H](O[C@H]1[C@H](O)[C@H]2O)O[C@@H]8CO)O[C@@H]7CO)O[C@@H]6CO)O[C@@H]5CO)O[C@@H]4CO)O[C@@H]3CO [BETADEX]
[1]
  IC50: Not Active
  Ki: Not Active
[2]; cho
  IC50: Not Active
[3]; platelet
  IC50: Not Active
[4]
  IC50: Not Active
[5]; cho-k1
  IC50: Not Active

## NC(N)=Nc1nc(CSCCC(N)=NS(N)(=O)=O)cs1 [FAMOTIDINE]
[1]
  IC50: Not Active
  Ki: Not Active
[2]; cho
  IC50: Not Active
[3]; platelet
  IC50: Not Active
[4]
  IC50: Not Active
[5]; cho-k1
  IC50: Not Active

## COc1cc(NC(C)CCCN)c2ncccc2c1 (stereo not given) [PRIMAQUINE]
[1]
  IC50: Not Active
  Ki: Not Active
[2]; cho
  IC50: Not Active
[3]; platelet
  IC50: Not Active
[4]
  IC50: Not Active
[5]; cho-k1
  IC50: Not Active

## Cc1c(N)nc([C@H](CC(N)=O)NC[C@H](N)C(N)=O)nc1C(=O)N[C@H](C(=O)N[C@H](C)[C@@H](O)[C@H](C)C(=O)N[C@H](C(=O)NCCc1nc(-c2nc(C(=O)NCCC[S+](C)C)cs2)cs1)[C@@H](C)O)[C@@H](O[C@@H]1O[C@@H](CO)[C@@H](O)[C@H](O)[C@@H]1O[C@H]1O[C@H](CO)[C@@H](O)[C@H](OC(N)=O)[C@@H]1O)c1c[nH]cn1.[Br-] [BLEOMYCIN A2]
[1]
  IC50: Not Active
  Ki: Not Active
[2]; cho
  IC50: Not Active
[3]; platelet
  IC50: Not Active
[4]
  IC50: Not Active
[5]; cho-k1
  IC50: Not Active

## c1ccc2c(c1)Nc1ccccc1S2 [PHENOTHIAZINE]
[1]
  IC50: Not Active
  Ki: Not Active
[2]; cho
  IC50: Not Active
[3]; read-out: IC50
  IC50: 196 nM
[4]
  IC50: Not Active
[5]; read-out: IC50
  IC50: 2240 nM
[5]; read-out: Ki
  Ki: 1170 nM

## NC(=O)NC(=O)Cc1ccccc1 [PHENACEMIDE]
[1]
  IC50: Not Active
  Ki: Not Active
[2]; cho
  IC50: Not Active
[3]; platelet
  IC50: Not Active
[4]
  IC50: Not Active
[5]; cho-k1
  IC50: Not Active

## Nc1nc(N)c2nc(CNc3ccc(C(=O)N[C@@H](CCC(=O)O)C(=O)O)cc3)cnc2n1 [AMINOPTERIN]
[1]
  IC50: Not Active
  Ki: Not Active
[2]; cho
  IC50: Not Active
[3]; platelet
  IC50: Not Active
[4]
  IC50: Not Active
[5]; cho-k1
  IC50: Not Active

## CC(C)(C#N)c1cc(Cn2cncn2)cc(C(C)(C)C#N)c1 [ANASTROZOLE]
[1]
  IC50: Not Active
  Ki: Not Active
[2]; cho
  IC50: Not Active
[3]; platelet
  IC50: Not Active
[4]
  IC50: Not Active
[5]; cho-k1
  IC50: Not Active

## CC1(COc2ccc(CC3SC(=O)NC3=O)cc2)CCCCC1 (stereo not given) [CIGLITAZONE]
[1]
  IC50: Not Active
  Ki: Not Active
[2]; read-out: IC50
  IC50: 26.7 µM
[2]; read-out: Ki
  Ki: 9.07 µM
[3]; platelet
  IC50: Not Active
[4]
  IC50: Not Active
[5]; cho-k1
  IC50: Not Active

## Oc1ncnc2[nH]ncc12 [ALLOPURINOL]
[1]
  IC50: Not Active
  Ki: Not Active
[2]; cho
  IC50: Not Active
[3]; platelet
  IC50: Not Active
[4]
  IC50: Not Active
[5]; cho-k1
  IC50: Not Active

## NS(=O)(=O)c1cc(C(=O)O)c(NCc2ccco2)cc1Cl [FUROSEMIDE]
[1]
  IC50: Not Active
  Ki: Not Active
[2]; cho
  IC50: Not Active
[3]; platelet
  IC50: Not Active
[4]
  IC50: Not Active
[5]; cho-k1
  IC50: Not Active
